Data from ChEMBL document CHEMBL1125622 (J Med Chem, 1991).

Legend:
[1] = target: T1, Dopamine beta-hydroxylase (Bos taurus) (UniProt P15101); test: Kcat/Km value of the compound; design: unit not given here
T1 sequence (whole entry): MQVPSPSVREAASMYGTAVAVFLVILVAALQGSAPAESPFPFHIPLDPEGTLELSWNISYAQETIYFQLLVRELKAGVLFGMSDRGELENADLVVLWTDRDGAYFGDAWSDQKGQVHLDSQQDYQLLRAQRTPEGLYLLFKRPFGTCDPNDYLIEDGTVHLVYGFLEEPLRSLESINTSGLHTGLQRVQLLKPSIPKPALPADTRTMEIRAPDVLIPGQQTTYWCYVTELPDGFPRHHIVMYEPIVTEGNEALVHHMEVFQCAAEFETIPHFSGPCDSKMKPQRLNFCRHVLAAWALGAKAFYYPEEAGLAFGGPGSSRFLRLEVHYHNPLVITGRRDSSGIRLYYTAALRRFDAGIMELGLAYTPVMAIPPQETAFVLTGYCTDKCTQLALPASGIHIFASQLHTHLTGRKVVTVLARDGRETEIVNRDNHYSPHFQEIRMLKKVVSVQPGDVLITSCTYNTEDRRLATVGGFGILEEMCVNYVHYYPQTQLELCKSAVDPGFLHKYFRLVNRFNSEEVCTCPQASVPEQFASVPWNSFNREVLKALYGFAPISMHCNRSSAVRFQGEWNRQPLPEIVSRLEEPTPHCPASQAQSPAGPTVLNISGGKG

[2] = target: T1, Dopamine beta-hydroxylase (Bos taurus); test: Kinetic parameter kcat was measured for dopamine beta-monooxygenase
[3] = species: Rattus norvegicus; test: The ability to inhibit dopamine uptake was measured in rat brain striatal synaptosomes; type: functional
[4] = substrate: C[C@@H](N)CSc1ccccc1; test: (§1) Kinetic parameter Km was measured for dopamine beta-monooxygenase
[5] = substrate: C[C@H](N)CSc1ccccc1; test: as §1

C[C@@H](N)CSc1ccccc1
Ratio [1]: 700
k cat [2]: 13 s⁻¹

C[C@H](N)CSc1ccccc1
Ratio [1]: 4800
IC50 [3]: 6.5 µM
k cat [2]: 37 s⁻¹

NCCc1ccc(O)cc1
Ratio [1]: 60000
k cat [2]: 121 s⁻¹

NCCCc1ccccc1
Ratio [1]: 800
k cat [2]: 17 s⁻¹

B1: Dopamine beta-hydroxylase (Bos taurus), P15101 (protein)
chain: MQVPSPSVREAASMYGTAVAVFLVILVAALQGSAPAESPFPFHIPLDPEGTLELSWNISYAQETIYFQLLVRELKAGVLFGMSDRGELENADLVVLWTDRDGAYFGDAWSDQKGQVHLDSQQDYQLLRAQRTPEGLYLLFKRPFGTCDPNDYLIEDGTVHLVYGFLEEPLRSLESINTSGLHTGLQRVQLLKPSIPKPALPADTRTMEIRAPDVLIPGQQTTYWCYVTELPDGFPRHHIVMYEPIVTEGNEALVHHMEVFQCAAEFETIPHFSGPCDSKMKPQRLNFCRHVLAAWALGAKAFYYPEEAGLAFGGPGSSRFLRLEVHYHNPLVITGRRDSSGIRLYYTAALRRFDAGIMELGLAYTPVMAIPPQETAFVLTGYCTDKCTQLALPASGIHIFASQLHTHLTGRKVVTVLARDGRETEIVNRDNHYSPHFQEIRMLKKVVSVQPGDVLITSCTYNTEDRRLATVGGFGILEEMCVNYVHYYPQTQLELCKSAVDPGFLHKYFRLVNRFNSEEVCTCPQASVPEQFASVPWNSFNREVLKALYGFAPISMHCNRSSAVRFQGEWNRQPLPEIVSRLEEPTPHCPASQAQSPAGPTVLNISGGKG
Km [4]: 19 mM
Km [5]: 7.7 mM
